In patent US7026469B2, “Compositions and methods of double-targeting virus infections and cancer cells” (Wake Forest University School of Medicine, priority 2000, dated 2006):
“And” between values parts separate entries of the source, which are not always exact repeats. Equal entries are not always repeated. Where two headings read alike, the source gives them in different places.

Key:
[1] = Cytotoxicity (TC50) of the compounds tested for anti-HIV-1 activity; type: cell-based, human; settings: human, CEM-SS cells
Experimental: (§1) The inhibitory effects of PC lipids, non-PC lipid-AZT conjugates, and double-targeting PC lipid-AZT conjugate compounds of the invention on replication of HIV-1 virus in cells was examined using the plaque assay procedure described in Kucera et al. (1990, AIDS Research and Human Retroviruses, 6:491). CEM-SS cells were seeded at 50,000 cells per milliliter in RPMI growth medium as a monolayer in 96-well dishes, inoculated with 50 to 100 plaque forming units of HIV-1 and overlaid with serial dilutions of either PC lipid, non-PC lipid-AZT conjugate, or PC-lipid-AZT conjugate in RPMI-1640 growth medium supplemented with 10% fetal bovine serum. The structures of the tested compounds are described in Table 1. AZT and PC lipids were used as positive controls. […] The cytotoxicity of PC lipids, non-PC lipid-AZT conjugates and double targeting PC lipid-AZT conjugates was assessed using the procedure described in Kucera et al. (1990, AIDS Res. And Human Retrovir., 6:496, and 1998, Antiviral Chemistry and Chemotherapy, 9:160). [drawing 16]

[2] = Oral administration of phospholipid-AZT conjugate in rodents (distribution, half-life); set-up: species or system rodents (mice); settings: mouse, in vivo; in rodents; units given within the value; read-out: half-life of AZT alone
HIV-1 = HIV-1 syncytial plaque assay in CEM-SS cells; type: cell-based
Experimental: as §1
In the plaque assay, HIV-1 syncytial plaques are seen as large, multicellular foci (10 to 25 nuclei/syncytium) that appear either brown and granular or clear. Because the number of HIV-1 syncytial plaques was correlated with reverse transcriptase (RT) and p24 core antigen activity in the HIV-1 infected cell overlay fluids, the syncytial plaque assay could be used to quantify the amount of infectious virus. Reverse transcriptase activity was assayed according to the procedure described by Poeisz et al. (1980, Proc. Natl. Acad. Sci. U.S.A. 77:7415). The activity of p24 core antigen induced by HIV-1 infection of CEM-SS cells was measured spectrophotometrically using the commercial Coulter enzyme immunoassay (EIA).

[3] = system: HIV-1 persistently infected H9IIIB cells; assay: Induction of defective HIV-1 in persistently infected H9IIIB cells (RT activity after infecting fresh CEM-SS cells); type: cell-based; settings: RT activity in CEM-SS overlay medium after 7 or 9 days; H9IIIB cells treated with 1.0 μM compound for 14 or 11 days
Experimental: HIV-1 persistently infected H9IIIB cells were washed twice to remove extracellular HIV-1, resuspended in fresh growth medium with or without 1.0 μM of compound for a total of 14 days. During the treatment period, the cells were subcultured 1:3 three times a week. In addition, on days 3, 7 and 11, the cells were pelleted to remove extracellular HIV-1 before subculture in fresh growth medium with or without the compound. After 14 or 11 days of treatment, the virus was pelleted (100,000×g, 1 hr, 4 C.) from the overlay medium to remove free compound, resuspended in fresh medium without compound and assayed for RT activity. The virus suspension was normalized to 500,000 RT DPM and used to infect fresh CEM-SS cells. The infected CEM-SS cells were incubated for a total of 7 or 9 days, and the overlay medium was harvested and assayed for induction of RT activity. The % inhibition of RT activity was used as a measure of defective virus formation during the treatment period.

Friend leukemia virus = settings: INK-11 compared with AZT alone; cited from earlier work
[4] = system: AZT-resistant clinical isolates of HIV-1; assay: microbe, parasite or virus in culture; type: cell-based; settings: for EC50: mean of 2 to 4 independent tests
Experimental: as §1
Evaluation of the clinical isolates to the compounds was performed using the plaque assay procedure described herein in Example 1. The matched pairs of clinical isolates were obtained through the AIDS Research and Reference Reagent Program, NIH, Bethesda, Md.

[5] = system: herpes simplex virus type 2; assay: Herpes simplex virus type 2 plaque inhibition in Vero cells; type: cell-based; settings: acyclovir in replicate tests; read-out: EC50 against herpes simplex virus type 2
Experimental: Proof-of-concept of the antiviral activity of the double-targeting PC lipid-AZT conjugate compounds of the invention with respect to herpes simplex virus type 2 was evaluated and compared with that of PC lipid alone and with acyclovir (positive controls). Serial dilutions of PC lipid, PC lipid-AZT conjugate compound, or acyclovir were evaluated for inhibition of the formation of herpes simplex virus type 2 plaques in Vero cells and EC50 values were calculated from the results obtained. Briefly, the tests for anti-herpes simplex virus (HSV) activity and cytotoxicity of the compounds were performed by seeding 8×10^4 monkey kidney cells (Vero) per ml of D-MEM with 10% fetal bovine serum (FBS) in each well of a 12-well dish. The cultures were incubated at 37° C. to form a complete monolayer. To measure anti-HSV activity and effective concentration50 (EC50) each cell monolayer was infected with HSV diluted in PBS-A containing about 100 plaque forming units (PFU) per 0.1 ml. After virus attachment (1 hr., 37° C.) the infected monolayers were overlaid with E-MEM containing 2% FBS and 0.5% methyl cellulose with or without added serial concentrations of test compound. […] The EC50 values were calculated using a computer generated program.

[6] = Cytotoxicity in Vero cell monolayers (cell morphology); type: cell-based, monkey; settings: monkey, Vero cell monolayers (monkey kidney cells), 48 hours at 37° C., lowest concentration changing morphology in at least 25% of the cells, read-out: Cytotoxicity (TC50)
Experimental: To measure cytotoxicity of the compounds, the cell monolayers (described above) were treated with a serial concentration of test compound for 48 hours at 37° C. and visually examined after crystal violet staining by light microscopy for changes in cell morphology (cell rounding, shrinking, detachment) compared to an untreated control culture.

EC50 [5]	SMILES	CC50 [1]	half-life [2]	Differential Selectivity (HIV-1; DS = ratio of TC50 for cytotoxicity to EC50 for anti-HIV activity)	EC50 (HIV-1; Human immunodeficiency virus 1, CEM-SS, 120 h, read-out: Anti-HIV-1 Activity (EC50))	DPM-Bkg [3]	suppression against RT activity (Friend leukemia virus)	EC50 ([4]; Human immunodeficiency virus 1, read-out: EC50 Pre-AZT G-762, pre-AZT isolate, patient code G-762)	EC50 ([4]; Human immunodeficiency virus 1, read-out: EC50 Pre-AZT H112-2, pre-AZT isolate, patient code H112-2)	Fold-Increase (G-762 to G-691) ([4]; post-AZT G-691 versus pre-AZT G-762)	fold increase in AZT-resistance among HIV-1 clinical isolates ([4]; text summary over both isolate pairs)	CC50 at 48 h [6]
–	Cc1cn([C@H]2C[C@H](N=[N+]=[N-])[C@@H](CO)O2)c(=O)[nH]c1=O [AZT, 3′-azido-3′-deoxythymidine, reference compound]	3.7 µM	30 to 60 min	411	0.009 µM	5416 DPM and 6573 DPM	98%	0.001 µM	0.002 µM	165	680- to 1,100 fold	–
12.5 µM and 14.5 µM and 6.67 µM	Nc1nc2c(ncn2COCCO)c(=O)[nH]1 [Acyclovir, reference compound]	–	–	–	–	–	–	–	–	–	–	> 20 µM
